pIC50: −log10 of the molar value. Several values for one entry are separate records, joined by “and”; a condition that tells them apart may be missing. Identical values can stand only once. Like-named read-outs stand apart in the source and are kept apart here.
Tests used:
[1] = Pharmacokinetics in ICR mice after intravenous and intragastric administration; assay type: in vivo; conditions: for MRT last: read-out: MRT(0-t); for MRT inf: read-out: MRT(0-∞); for Tmax: read-out: Tmax; for Vd: read-out: Vz; for half-life: read-out: t1/2 (converted)
In short: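 Male ICR mice (6-9 weeks, 20-30 g, n=3 per route) were fasted overnight and dosed at 2 mg/kg i.v. or 5 mg/kg intragastrically in 5% DMSO/40% PEG400/55% (10% HP-β-CD in saline). Plasma levels were measured by LC-MS/MS after protein precipitation (LLOQ 1 ng/mL), and non-compartmental PK parameters were calculated.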

[2] = system: human osteosarcoma cell line SJSA-1; assay: Inhibition of proliferation of human osteosarcoma cell line SJSA-1 (DAPI staining, In Cell Analyzer); conditions: Homo sapiens, SJSA-1, 72 h, read-out: IC50 (nM), inhibitory activity on proliferation of human osteosarcoma cell line SJSA-1, SJSA-1, incubated 72 h
MDM2 = target: T1, MDM2 (Homo sapiens, UniProt Q00987); assay: Inhibition test of MDM2-P53 (GST-MDM2, Biotin-P53, Anti-GST-Tb, SA-XL665); assay type: binding
T1 construct: made in house
T1 sequence (Q00987 whole entry): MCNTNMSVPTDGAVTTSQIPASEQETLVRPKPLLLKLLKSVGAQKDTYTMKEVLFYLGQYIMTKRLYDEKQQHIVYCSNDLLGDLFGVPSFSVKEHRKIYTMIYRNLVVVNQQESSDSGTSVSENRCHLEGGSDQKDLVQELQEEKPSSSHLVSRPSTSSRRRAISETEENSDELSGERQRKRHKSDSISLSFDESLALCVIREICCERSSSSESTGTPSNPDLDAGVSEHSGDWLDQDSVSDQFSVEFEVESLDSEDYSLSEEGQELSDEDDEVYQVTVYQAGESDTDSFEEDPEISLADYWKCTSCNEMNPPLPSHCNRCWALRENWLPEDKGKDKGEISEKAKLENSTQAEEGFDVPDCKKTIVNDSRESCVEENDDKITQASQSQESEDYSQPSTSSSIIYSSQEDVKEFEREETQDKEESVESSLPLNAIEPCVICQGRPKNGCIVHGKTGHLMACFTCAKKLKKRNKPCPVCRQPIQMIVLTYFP
In short: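 Binding was measured by TR-FRET with GST-MDM2 at 4 nM final in PBS with 0.1% BSA, 5 mM DTT and 1 mM AEBSF. Compounds were tested as twelve-point 5-fold dilutions and incubated with the detection mix for 90 min at 25 °C with shaking before plate-reader reading and curve fitting.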

[3] = ICR mice, IV 2 mg/kg, individual animal, 2 mg/kg
[4] = ICR mice, PO 5 mg/kg, individual animal, 5 mg/kg
[5] = male, ICR, mouse, plasma, iv, 2 mg/kg, ICR mice, IV 2 mg/kg, individual animal
[6] = male, ICR, mouse, plasma, iv, 2 mg/kg, ICR mice, IV 2 mg/kg, mean of 3 animals
[7] = male, ICR, mouse, plasma, po, 5 mg/kg, ICR mice, PO 5 mg/kg, individual animal
[8] = male, ICR, mouse, plasma, po, 5 mg/kg, ICR mice, PO 5 mg/kg, mean of 3 animals

**Q.** For `COc1cc(OC)c(-c2nc3c(n2C(C)C)[C@@]2(C(=O)Nc4cc(Cl)ccc42)N(c2cc(Cl)ccc2F)C3=O)cn1` [Example S-133, (S)-6-chloro-5′-(5-chloro-2-fluorophenyl)-2′-(4,6-dimethoxypyridin-3-yl)-3′-isopropyl-3′H-spiro[dihydroindole-3,4′-pyrrolo[3,4-d]imidazole]-2,6′(5′H)-dione], which “AUC(0-t)” value [1, 3] is on record?
**A.** Its value is 3187.22 ng·h/mL and 2904.29 ng·h/mL.

**Q.** What about the “AUC(0-∞)” value [1, 3] of the same compound?
**A.** The value was 3247.82 ng·h/mL and 3022.24 ng·h/mL.

**Q.** What about the CL [1, 3] of the same compound?
**A.** The CL was 10.26 mL/min/kg and 11.03 mL/min/kg.

**Q.** And the Cmax [1, 3]?
**A.** Its Cmax is 2521.09 ng/mL and 2055.95 ng/mL.

**Q.** And the “MRT(0-t)” value [1, 3]?
**A.** Its value is 1.05 h and 1.20 h.

**Q.** And the “MRT(0-∞)” value [1, 3]?
**A.** Its value is 1.17 h and 1.45 h.

**Q.** What about the Vz [1, 3] of the same compound?
**A.** Its Vz is 1.01 L/kg and 1.16 L/kg.

**Q.** What about the t1/2 [1, 3] of the same compound?
**A.** Its t1/2 is 1.13 h and 1.22 h.

**Q.** And the “AUC(0-t)” value [1, 4]?
**A.** Its value is 4282.62 ng·h/mL and 5953.82 ng·h/mL.

**Q.** What about the “AUC(0-∞)” value [1, 4] of the same compound?
**A.** The value was 4314.80 ng·h/mL and 5994.87 ng·h/mL.

**Q.** What about the Cmax [1, 4] of the same compound?
**A.** Its Cmax is 1489.30 ng/mL and 2195.02 ng/mL.

**Q.** What about the “MRT(0-t)” value [1, 4] of the same compound?
**A.** The value was 2.17 h and 2.05 h.

**Q.** What about the “MRT(0-∞)” value [1, 4] of the same compound?
**A.** Its value is 2.22 h and 2.10 h.

**Q.** And the t1/2 [1, 4]?
**A.** The t1/2 was 1.05 h and 1.04 h.

**Q.** And the AUC(0-inf) [1, 5]?
**A.** The AUC(0-inf) was 4700 ng·h/mL.

**Q.** And the clearance [1, 5]?
**A.** The clearance was 7.09 mL/min/kg.

**Q.** What about the AUC(0-t) ([1]; male, ICR, mouse, plasma, iv, 2 mg/kg, ICR mice, IV 2 mg/kg, individual animal, read-out: AUC(0-t)) of the same compound?
**A.** The AUC(0-t) was 4600 ng·h/mL.

**Q.** What about the Cmax ([1]; male, ICR, mouse, plasma, iv, 2 mg/kg, ICR mice, IV 2 mg/kg, individual animal, read-out: Cmax) of the same compound?
**A.** The Cmax was 2980 ng/mL.

**Q.** And the MRT last [1, 5]?
**A.** Its MRT last is 1.18 h.

**Q.** And the MRT inf [1, 5]?
**A.** Its MRT inf is 1.31 h.

**Q.** What about the Tmax [1, 5] of the same compound?
**A.** The Tmax was 4.8 min.

**Q.** What about the Vd [1, 5] of the same compound?
**A.** The Vd was 0.66 L/kg.

**Q.** What about the half-life [1, 5] of the same compound?
**A.** Its half-life is 64.2 min.

**Q.** What about the AUC(0-inf) [1, 6] of the same compound?
**A.** The AUC(0-inf) was 3660 ng·h/mL.

**Q.** And the clearance [1, 6]?
**A.** The clearance was 9.46 mL/min/kg.

**Q.** And the AUC(0-t) ([1]; male, ICR, mouse, plasma, iv, 2 mg/kg, ICR mice, IV 2 mg/kg, mean of 3 animals, read-out: AUC(0-t))?
**A.** The AUC(0-t) was 3560 ng·h/mL.

**Q.** And the Cmax ([1]; male, ICR, mouse, plasma, iv, 2 mg/kg, ICR mice, IV 2 mg/kg, mean of 3 animals, read-out: Cmax)?
**A.** Its Cmax is 2520 ng/mL.

**Q.** What about the MRT last [1, 6] of the same compound?
**A.** The MRT last was 1.14 h.

**Q.** And the MRT inf [1, 6]?
**A.** Its MRT inf is 1.31 h.

**Q.** And the Tmax [1, 6]?
**A.** Its Tmax is 4.98 min.

**Q.** What about the Vd [1, 6] of the same compound?
**A.** Its Vd is 0.94 L/kg.

**Q.** What about the half-life [1, 6] of the same compound?
**A.** The half-life was 68.4 min.

**Q.** And the AUC(0-inf) [1, 7]?
**A.** The AUC(0-inf) was 6150 ng·h/mL.

**Q.** And the AUC(0-t) ([1]; male, ICR, mouse, plasma, po, 5 mg/kg, ICR mice, PO 5 mg/kg, individual animal, read-out: AUC(0-t))?
**A.** Its AUC(0-t) is 6070 ng·h/mL.

**Q.** What about the Cmax ([1]; male, ICR, mouse, plasma, po, 5 mg/kg, ICR mice, PO 5 mg/kg, individual animal, read-out: Cmax) of the same compound?
**A.** Its Cmax is 1570 ng/mL.

**Q.** What about the MRT last [1, 7] of the same compound?
**A.** Its MRT last is 2.34 h.

**Q.** What about the MRT inf [1, 7] of the same compound?
**A.** The MRT inf was 2.43 h.

**Q.** And the Tmax [1, 7]?
**A.** Its Tmax is 60 min.

**Q.** What about the half-life [1, 7] of the same compound?
**A.** Its half-life is 69 min.

**Q.** And the AUC(0-inf) [1, 8]?
**A.** Its AUC(0-inf) is 5490 ng·h/mL.

**Q.** What about the AUC(0-t) ([1]; male, ICR, mouse, plasma, po, 5 mg/kg, ICR mice, PO 5 mg/kg, mean of 3 animals, read-out: AUC(0-t)) of the same compound?
**A.** Its AUC(0-t) is 5440 ng·h/mL.

**Q.** What about the Cmax ([1]; male, ICR, mouse, plasma, po, 5 mg/kg, ICR mice, PO 5 mg/kg, mean of 3 animals, read-out: Cmax) of the same compound?
**A.** The Cmax was 1750 ng/mL.

**Q.** What about the MRT last [1, 8] of the same compound?
**A.** The MRT last was 2.19 h.

**Q.** And the MRT inf [1, 8]?
**A.** The MRT inf was 2.25 h.

**Q.** And the Tmax [1, 8]?
**A.** The Tmax was 60 min.

**Q.** And the half-life [1, 8]?
**A.** The half-life was 64.8 min.

**Q.** What about the AUC(0-t) ([1]; male, ICR, mouse, plasma, po, 5 mg/kg, oral intragastric administration 5 mg/kg, read-out: AUC0-t) of the same compound?
**A.** The AUC(0-t) was 5440 ng·h/mL.

**Q.** What about the bioavailability ([1]; male, mouse, plasma, ICR mice, PO 5 mg/kg vs IV 2 mg/kg, from mean values, read-out: F* (bioavailability)) of the same compound?
**A.** The bioavailability was 61%.

**Q.** What about the IC50 [2] of the same compound?
**A.** Its IC50 is 99.8 nM.

**Q.** What about the pIC50 (MDM2) of the same compound?
**A.** Its pIC50 is 8.85.

— patent US11339171B2, “MDM2 inhibitors” (Gan & Lee Pharmaceuticals, priority 2017, dated 2022)
